Data taken from article PMC10776900, “Identification of structural motifs critical for human G6PC2 function informed by sequence analysis and an AlphaFold2-predicted model” (Bioscience Reports, 2024).

Tests used:
human G6PC2 V219 variant [1] = biological target: T1, human G6PC2 V219 variant (Homo sapiens, UniProt Q9NQR9); experiment: G6Pase activity of enzyme purified with versus without CHS; type: biochemical; conditions: CHS 0.05% in solubilisation, 0.02% in later buffers, LMNG micelles; putative CRAC motif
T1 construct: purified from HEK293S (BacMam) in LMNG micelles

human G6PC2 V219 variant [2] = biological target: T1, human G6PC2 V219 variant; experiment: G6Pase activity with acute addition of cholesterol to purified enzyme; type: biochemical; conditions: purified without CHS, LMNG micelles; putative CRAC motif

% reduction of Vmax (human G6PC2 V219 variant [1])	Structure (SMILES)	G6Pase activity with acute addition of cholesterol to purified enzyme (human G6PC2 V219 variant [2])
~ 90%	CC(C)CCC[C@@H](C)[C@H]1CC[C@H]2[C@@H]3CC=C4C[C@@H](OC(=O)CCC(=O)O)CC[C@]4(C)[C@H]3CC[C@]12C [cholesterol hemi-succinate]	–
–	CC(C)CCC[C@@H](C)[C@H]1CC[C@H]2[C@@H]3CC=C4C[C@@H](O)CC[C@]4(C)[C@H]3CC[C@]12C [cholesterol]	addition of cholesterol decreased the activity of the V219 but not the L219 variant
